Read-outs that look alike come from different tables or passages of the source. Marks after values point to notes of the source that are not given here.
Tested on: MCF-7 breast cancer cells transfected with the human aromatase gene
Settings: for Mean % Inhibition of Tumor Size vs Vehicle at Day 42 / Mean Tumor Size at Day 98 / Mice cured / Mice dead / Mice with Escape to 500 mm^3 / Percent of mice with cures: letrazole only
Protocol: The relative effects of the aromatase inhibitor agent letrozole and a test compound of the present invention were evaluated, when administered alone or in combination, on the in vivo growth of MCF-7 breast cancer cells transfected with the human aromatase gene.
In this study, cells (7.0×10^6 cells/mouse) were implanted subcutaneously in female ovariectomized athymic nude mice (n=10). Androstenedione was administered (via slow-release pellets) as a source of […].
The daily dose was administered in a target volume of 0.1 mL, which was adjusted according to subject weight. The oral vehicle was L21 (a mixture of 35% Labrasol, 35% Labrafac, and 30% Solutol). Individual vehicle-treated mice were removed from study when the tumor reached 1500 mm^3. After 100 days of treatment, treatment was stopped.

[1] = 10 μg/mouse orally once per day
[2] = 30 μg/mouse orally once per day

N#Cc1ccc(C(c2ccc(C#N)cc2)n2cncn2)cc1 [letrozole]
Mean % Inhibition of Tumor Size vs Vehicle at Day 42 [1]: 72%
Mean Tumor Size at Day 98 [1]: 225 mm^3
Mice cured [1]: 0 of 9
Mice dead [1]: 1
Mice with Escape to 500 mm^3 [1]: 2
Percent of mice with cures [1]: 0% cured
Mean % Inhibition of Tumor Size vs Vehicle at Day 42 [2]: 91%**
Mean Tumor Size at Day 98 [2]: 146 mm^3
Mice cured [2]: 2 of 9
Mice dead [2]: 1
Mice with Escape to 500 mm^3 [2]: 0
Percent of mice with cures [2]: 22% cured
Effect on tumor growth (letrozole (10 μg/mouse) alone): the tumors did not regress, tumor growth was prevented
Effect on tumor growth (letrozole (30 μg/mouse) alone): the tumors regressed
Mice with cures (no measurable tumor) at Day 100 (letrozole (30 μg/mouse) alone): two of the nine
